In data set [1] the test system is MIA PaCa-2 pancreatic tumor xenograft. In words: Subcutaneous MIA PaCa-2 pancreatic tumor xenograft therapy study. The settings on record: 15 mg/kg IV twice weekly for 28 days. Type of data set: in vivo. As for the experimental part:
To determine if the in vitro activity of CM03 was paralleled in vivo, we explored the activity of CM03 in a mouse xenograft model of PDAC. We have previously reported that the maximum tolerated dosage (MTD) for intravenous (IV) administration of MM41 is 25 mg/kg.[33] CM03 was well tolerated, up to a dosage of 45–50 mg/kg, as judged by a dose-escalation MTD study. A therapeutic schedule of two CM03 intravenous (IV) doses was explored using a subcutaneous MIA PaCa-2 pancreatic tumor xenograft model derived from the human cell line used in the cell growth inhibition studies. A group size of eight CD-1 nude mice was used, and dosing was conducted at 10 and 15 mg/kg, each twice weekly, over a period of 4 weeks (28 days: 8 doses). Two further groups were given either MM41 or gemcitabine at 15 mg/kg and received the same dose regimen. […] IVIS imaging of treated mice was performed by taking account of the intrinsic fluorescence of CM03. […] Thus, in contrast to MM41 and gemcitabine, the higher-dose CM03 treatment results in a statistically significant (p < 0.001) antitumor effect, which persisted long after dosing had ceased, up to the termination of the xenograft experiment (62 days).
For therapy studies, female CD-1 nude mice (2–3 months old, weighing 20–25 g) were injected subcutaneously with 5 × 10^6 MIA PaCa-2 cells in the right flank (unsupplemented RPMI + Matrigel). When the tumors were established (approximately 13 days, mean size 0.05 cm^3), the mice were divided into five treatment groups with eight mice/group. The MM41 and CM03 samples were dissolved directly in saline to the required concentrations and administered IV. Tumor size was measured weekly by calliper using the π-based ellipsoid volume formula (length × width × height × π/6) every 3–4 days, and the mice were also weighed and examined at the same time to determine any signs of toxicity from the drug.
• Group 1:15 mg/kg of gemcitabine (Sigma), twice weekly dose. • Group 2:15 mg/kg of MM41, twice weekly dose. • Group 3:10 mg/kg of CM03, twice weekly dose. • Group 4:15 mg/kg of CM03, twice weekly dose. • Group 5: saline only, twice weekly dose.
The xenograft data was analyzed using Student’s t test (GraphPad Inc.). Responses were considered to be significant for those with probabilities (p) less than 5% (p < 0.05). Mice were culled if there was any sign of tumor ulceration, if tumor volume exceeded 1.5 cm^3, or if a weight loss over 20% of initial body weight was observed. Samples of liver, kidney, and spleen from each animal in the CM03 (15 mg/kg) and untreated control groups were excised at the end of the therapy experiment, then fixed in 10% neutral buffered formalin for at least 48 h prior to processing and paraffin embedding. Tissue slices were stained with hematoxylin and eosin and assessed visually for any obvious differences compared with controls, indicative of toxicity and tissue damage. For the imaging study mice were anesthetized using isoflurane and imaged using the IVIS preclinical imaging system from PerkinElmer. Images were captured after 4 h following intravenous administration of CM03 using Cy5.5 excitation for 5 s.

Data set [2] in a line: Aqueous solubility and pH of the salt. Conditions: formate salt. Format: physicochemical. The source says:
The synthetic approach to the trisubstituted series adapts previously published procedures to simplify purification and increase yields of both intermediates and final compounds (Scheme 1). 5,5-Dimethyl-1,3-dibromohydantoin was used for the regioselective bromination of the starting material, enabling more efficient and convenient purification. The separation of final products was achieved using column chromatography, giving a 26% overall yield for CM03.
CM03 was then converted to a mixed hydrochloride/formate salt in order to enhance its aqueous solubility. At a concentration of 5 mg/mL, the pH of the CM03 salt solution was 6.95.

For another data set, the target named is hERG (Homo sapiens, UniProt Q12809). Put plainly: hERG liability (unpublished data). On the technique in general: The hERG channel carries a current that helps repolarise heart muscle cells.
hERG, sequence (Q12809 whole entry): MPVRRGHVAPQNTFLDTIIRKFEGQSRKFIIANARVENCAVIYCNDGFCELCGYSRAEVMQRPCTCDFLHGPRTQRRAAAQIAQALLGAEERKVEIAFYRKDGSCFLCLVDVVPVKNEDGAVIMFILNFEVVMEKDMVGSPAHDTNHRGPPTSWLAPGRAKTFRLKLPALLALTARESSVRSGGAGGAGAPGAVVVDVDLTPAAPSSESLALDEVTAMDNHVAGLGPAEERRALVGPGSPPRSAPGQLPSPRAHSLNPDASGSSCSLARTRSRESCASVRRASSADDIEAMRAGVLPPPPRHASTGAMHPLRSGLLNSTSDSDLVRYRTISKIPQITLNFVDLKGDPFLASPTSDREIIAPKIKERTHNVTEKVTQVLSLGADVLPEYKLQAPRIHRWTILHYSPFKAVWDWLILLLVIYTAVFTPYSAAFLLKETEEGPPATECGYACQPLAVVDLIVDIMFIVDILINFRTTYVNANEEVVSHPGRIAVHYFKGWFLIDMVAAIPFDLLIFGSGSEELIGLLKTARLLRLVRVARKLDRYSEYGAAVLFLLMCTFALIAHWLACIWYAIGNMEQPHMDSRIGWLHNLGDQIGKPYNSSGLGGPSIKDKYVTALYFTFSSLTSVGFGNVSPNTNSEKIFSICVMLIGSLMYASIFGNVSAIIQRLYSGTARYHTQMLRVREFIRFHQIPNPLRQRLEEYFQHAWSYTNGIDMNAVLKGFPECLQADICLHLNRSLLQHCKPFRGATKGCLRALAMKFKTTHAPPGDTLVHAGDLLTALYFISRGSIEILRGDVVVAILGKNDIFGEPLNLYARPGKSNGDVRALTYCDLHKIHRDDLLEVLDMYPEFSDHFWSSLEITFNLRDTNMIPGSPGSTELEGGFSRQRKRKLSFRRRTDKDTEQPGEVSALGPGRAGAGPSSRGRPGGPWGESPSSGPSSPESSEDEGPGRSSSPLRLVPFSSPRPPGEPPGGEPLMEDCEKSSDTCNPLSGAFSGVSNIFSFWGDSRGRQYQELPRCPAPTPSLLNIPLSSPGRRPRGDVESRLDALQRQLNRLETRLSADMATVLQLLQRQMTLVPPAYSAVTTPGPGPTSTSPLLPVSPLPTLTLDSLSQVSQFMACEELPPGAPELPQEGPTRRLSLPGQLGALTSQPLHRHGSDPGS
Another data set concerns PDAC PANC-1 cells. Put plainly: 96 h SRB growth inhibition assay, PANC-1. Format: cell-based. Conditions: Homo sapiens. As for the experimental part:
(§1) Compounds were screened with a 96 h SRB (sulforhodamine B) assay for their antiproliferative activity in a panel of human cancer cell lines comprising lung adenocarcinoma (A549), breast adenocarcinoma (MCF7), and PDAC (MIA PaCa-2 and PANC-1) cell lines, as well as a fetal lung fibroblast-like nononcogenic control cell line (WI-38) (Figure 1f). […] Gemcitabine is also active in these lines at low nanomolar levels, although less so in MIA PaCa-2 (IC50 19 ± 5 nM) and more so in BX-PC3 cells (6 ± 2 nM).
(§2) All cell lines were purchased from ATCC and maintained in appropriate medium supplemented with 10% fetal bovine serum (Invitrogen, UK), 2 mM L-glutamine (Invitrogen, Netherlands), and other components as specified by the suppliers. Cell lines were maintained at 37 °C, 5% CO2, and routinely passaged. Drugs were dissolved in H2O and filtered through 0.22 μm pore-size filter units (stock 10 mM) before addition to appropriate cell line media. Cellular growth inhibition was measured using the sulforhodamine B (SRB) assay in 96-well plates as described previously.[78] The 50% inhibitory concentrations (IC50) were determined by taking the mean absorbance at 540 nm for each drug concentration expressed as a percentage of the absorbance of untreated control wells.

In data set [3] the test system is breast adenocarcinoma (MCF7). In words: 96 h SRB growth inhibition assay, MCF7. Conditions: Homo sapiens. Type of data set: cell-based. As for the experimental part:
as §1, §2

In data set [4] the test system is MIA PaCa-2 pancreatic tumor xenograft. Details: method as in PMID 26077929. The settings on record: cited from earlier work.
For data set [5], the system named is fetal lung fibroblast-like nononcogenic control cell line (WI-38). Put plainly: 96 h SRB growth inhibition assay, WI-38. Type of data set: cell-based, human. Conditions: Homo sapiens, WI-38; SMILES csv supplement; read-out: WI-30 IC50. On the procedure: as §1, §2

Here are results for one molecule from publication PMC5867665, “Targeting Multiple Effector Pathways in Pancreatic Ductal Adenocarcinoma with a G-Quadruplex-Binding Small Molecule” (Journal of Medicinal Chemistry, 2018).

The structures appear in SMILES notation.

With `CN1CCN(CCCNc2cc3c4c(c(NCCCN5CCN(C)CC5)cc5c4c2C(=O)N(CCCN2CCOCC2)C5=O)C(=O)N(CCCN2CCOCC2)C3=O)CC1` [MM41, 4,9-bis((3-(4-methylpiperazin-1-yl)propyl)amino)-2,7-bis(3-morpholinopropyl)benzo[lmn][3,8]phenanthroline-1,3,6,8(2H,7H)-tetraone, reference compound], the “MTV ± SEM (Day 29)” value in data set [1] came to 0.05 ± 0.02 cm^3. The “MTV ± SEM (Day 62)” value in data set [1] came to 0.26 ± 0.14 cm^3. In data set [2], the water solubility entry is “freely water-soluble”. Moreover, the hERG liabilities result on hERG is recorded as “neither MM41 nor CM03 show significant hERG liabilities”. For the same molecule, the IC50 (as a rule, the concentration needed to halve the response being measured) in the data set with PDAC PANC-1 cells was determined as 3 ± 1 nM; in data set [3] it was 70 ± 10 nM; in data set [5], 230 ± 50 nM. Moreover, the “reduction of tumor volume in a PDAC xenograft model” value in data set [4] is listed as roughly 80%.
